Measurements: patent US20150157742A1, “[…] OF BIOLOGICAL COMPOUNDS LABELED WITH THE ALPHA EMITTER Ac-225” (priority 2013, published 2015)

System: K422 lymphoma cells
Experiment: Saturation binding assay (Scatchard analysis) on K422 lymphoma cells
Details: Scatchard analysis (FIG. 3), read-out: binding affinity
Description: Vos: “In vitro and in vivo evaluation of direct rhenium-188-labeled anti-CD52 monoclonal antibody alemtuzumab for radioimmunotherapy of B-cell chronic lymphocytic leukemia.” (Nuclear Medicine and Biology 35 (2008) 599-604)].

Substance Ac-225-DOTA-rituximab has a Kd of 30 nM.
